We go through four compounds from PMC4767442 (Oncotarget, 2015).

Series [1] has as its system MCF-7 cells. As to the kind of experiment: Inhibition of internalized 59Fe uptake from 59Fe-transferrin. The series is classed as cell-based, human. The following applies: MCF-7, compounds 25 μmol·L^−1, 3 h/37°C. The procedure: (§1) Iron chelation efficiency of the compounds at a concentration of 10 μmol·L^−1 was determined via 3 methods: (1) the calcein assay; (2) the ability of the ligands to induce ^59Fe mobilization from cells prelabeled with ^59Fe-transferrin; and (3) the efficacy of these agents to inhibit the uptake of ^59Fe from ^59Fe-transferrin [22, 38–40].
(§2) The fluorimetric calcein-AM assay was performed by established methods, as described previously. The Fe chelation efficiency of the metabolites in cells was expressed as a percentage of that of the parent chelator, Dp44mT or DpC (100%). For studies assessing the ability of these agents to induce ^59Fe mobilization and inhibit ^59Fe uptake from ^59Fe-transferrin by cells, human transferrin (Sigma-Aldrich, Germany) was labeled with ^59Fe (PerkinElmer, MA, USA) to generate ^59Fe-transferrin at a final specific activity of 500 pCi/pmol Fe, as previously described. The unbound ^59Fe was removed by exhaustive vacuum dialysis against a large excess of 0.15 M NaCl buffered to pH 7.4 with 1.4% NaHCO3 by standard methods.
(§3) To examine the ability of the studied substances to mobilize ^59Fe from MCF-7 cells or inhibit ^59Fe uptake from ^59Fe-transferrin, established techniques were utilized. For ^59Fe mobilization studies, cells were preincubated with ^59Fe-transferrin (0.75 μmol·L^−1) for 3 h/37°C, washed 4 times at 4°C on ice, and then reincubated with control medium or control medium containing the compounds (25 μmol·L^−1) for 3 h/37°C. The release of ^59Fe from the cells into the overlying medium was then examined by collecting both the cells and overlying medium and assessing ^59Fe levels using a γ-counter. For studies examining the ability of the agents to inhibit ^59Fe uptake from ^59Fe-transferrin, cells were incubated for 3 h/37°C with ^59Fe-transferrin (0.75 μmol·L^−1) in the presence or absence of the agents (25 μmol·L^−1), and then washed 4 times at 4°C on ice. The internalization of ^59Fe by cells was then assessed by incubation for 30 min/4°C with the general protease, Pronase (1 mg/mL), utilizing standard techniques. The amount of internalized ^59Fe in the presence of the agents was expressed as a percentage of ^59Fe internalized by control cells incubated in the presence of control media alone.

For series [2], the system named is cellular labile iron pools. Put plainly: Fluorimetric calcein-AM assay of intracellular iron chelation. The following applies: 10 μmol·L^−1. The series is classed as cell-based. As to the method:
as §1, §2

For series [3], the system named is MCF-7 cells. As to the kind of experiment: 59Fe mobilization from cells prelabeled with 59Fe-transferrin. The format is cell-based, human. To be noted: MCF-7 prelabeled with 59Fe-transferrin, compounds 25 μmol·L^−1, 3 h/37°C. As to the method:
as §1, §2, §3

Series [4] has as its system MCF-7 human breast adenocarcinoma cell line. As to the kind of experiment: MTT proliferation/viability assay, MCF-7. The format is cell-based. The following applies: MCF7, 72 h/37°C, mean ± S.D. As to the method: (§4) The MCF-7 human breast adenocarcinoma cell line was purchased from the European Collection of Cell Cultures (U.K.). The HL-60 human promyelocytic leukemia cell line, HCT116 human colorectal carcinoma cell line, H9c2 rat heart-derived myoblast cell line and 3T3 mouse embryo fibroblast line, were obtained from the American Type Culture Collection (VA, U.S.A.). Cells were cultured in Dulbecco's modified Eagle's medium (DMEM, Lonza, Switzerland) with or without (for MCF-7 cells only) phenol red, supplemented with 10% heat-inactivated fetal bovine serum (FBS; Lonza, Switzerland), 1% penicillin/streptomycin solution (Lonza, Switzerland) and 10 mM HEPES buffer (pH 7.0-7.6; Sigma-Aldrich, Germany). The HL-60 cell line was maintained in RPMI medium (Sigma-Aldrich, Germany) supplemented with 10% heat-inactivated FBS and 1% penicillin/streptomycin solution. All cell lines were cultured in 75 cm^2 tissue culture flasks (Switzerland) at 37°C in a humidified atmosphere of 5% CO2. Sub-confluent cells or, in the case of HL-60 cells, a cell suspension, were sub-cultured every 3-4 days.
(§5) Cells were seeded in 96-well plates for 24 h/37°C at a density of 5,000 (MCF-7), 10,000 (HL-60), 2,000 (HCT116) and 10,000 (3T3 and H9c2) cells/well. For 3T3 and H9c2 cells, the medium was changed to serum- and pyruvate-free DMEM 24 h prior to the experiments. Anti-proliferative and cytotoxicity effects of the compounds were studied at different concentrations after incubations for 72 h/37°C. Viabilities of cells were determined using MTT assays (Sigma-Aldrich, Germany) according to the manufacturer's instructions on a Tecan Infinite 200M plate reader (Tecan, Austria). The proliferation/viability of treated groups was expressed as a percentage of the untreated controls (100%).

Series [5] deals with HCT116 human colorectal carcinoma cell line. Put plainly: MTT proliferation/viability assay, HCT116. The series is classed as cell-based. The following applies: HCT-116, 72 h/37°C, mean ± S.D. As to the method: as §4, §5
Series [6] relates to 3T3 mouse embryo fibroblast line. Put plainly: MTT proliferation/viability assay, 3T3. The format is cell-based. To be noted: 72 h/37°C, mean ± S.D., serum- and pyruvate-free DMEM. The procedure:
as §4, §5

Series [7] concerns HL-60 human promyelocytic leukemia cell line. As to the kind of experiment: MTT proliferation/viability assay, HL-60. To be noted: 72 h/37°C, mean ± S.D. The format is cell-based. As to the method: as §4, §5
In series [8] the test system is H9c2 rat heart-derived myoblast cell line. Put plainly: MTT proliferation/viability assay, H9c2. The series is classed as cell-based. The following applies: 72 h/37°C, mean ± S.D., serum- and pyruvate-free DMEM. As to the method:
as §4, §5

Series [9] is described as follows: Post-preparative stability in the autosampler at 10°C. The series is classed as physicochemical. To be noted: for Post-preparative stability: autosampler 10°C, 24 h. As to the method:
(§6) The UHPLC-MS/MS methods for quantitative assays were validated with respect to selectivity, linearity, precision, accuracy, stability, recovery, matrix effects and dilution integrity (see […]
Supplementary Table 1-3). […]
(§7) Stability was assessed at low, medium and high concentration levels. Long -term stability was assessed for plasma samples at -80°C over a period of 7 days (three aliquots per level; Supplementary Table 3). […]

Series [10] in a line: Pharmacokinetics after single i.v. administration to rats (plasma, UHPLC-MS/MS). The format is in vivo, Wistar rats. The procedure: Male Wistar rats (230-310 g; n = 22) obtained from Velaz (Czech Republic) were kept in an air-conditioned room under a 12 h light-dark cycle, constant temperature and humidity and had free access to water and a standard laboratory pellet diet for rodents. All animal handling and procedures were approved and supervised by the Animal Welfare Body of the Faculty of Medicine in Hradec Kralove, Charles University in Prague. The investigation conformed to the Guide for the Care and Use of Laboratory Animals.
The rats were anaesthetized with pentobarbital (30 mg^.kg^−1; i.p.) and then the vena jugularis and arteria carotis were prepared for drug administration and blood sample collection, respectively. Both Dp44mT and DpC were dissolved in a mixture of saline, PEG 300 and ethanol (5:4:1, v/v/v) and administered to rats at a dose of 2 mg^.kg^−1, as a slow i.v. bolus. Blood was then collected into EDTA-containing tubes, immediately centrifuged and the plasma kept at −80°C until being analyzed. The blood withdrawn from animals was compensated with an appropriate volume of saline. The animals were sacrificed by pentobarbital overdose.
Initially, for both compounds, rats (n = 2, in each group) were used for the in-vivo investigation of the thiosemicarbazone metabolites and also the preparation of the quantitative analytical method. For the full PK study, 6 rats were used for each compound (group 1) and the blood was sampled at 4, 10, 30, 60, 120, 240 and 360 min post-administration.
Due to the markedly slower elimination of DpC, an additional in-vivo study was performed to appropriately describe the elimination phase of this drug. The conscious rats (n = 8, group 2) were administered DpC (2 mg^.kg^−1) via slow i.v. bolus to the vena saphena. Blood was sampled from the retro-orbital plexus under light ether anesthesia during the following time intervals: 120, 360, 600, 1440 and 1800 min. Plasma samples were treated and analyzed using the analytical methods described below in the Section: UHPLC-MS/MS methods for quantitative assay of the drugs and their metabolites.
Standard non-compartmental analysis was performed implementing Kinetica software (version 4.0, Thermo Fisher Scientific Inc., MA, U.S.A.). […] Maximum concentration (Cmax) and the time to maximum concentration (Tmax) were determined directly from the geometric mean vs. time profiles and from individual profiles. The area under the mean plasma concentration–time curve from zero up to the last sampling interval (AUC0-tlast) was calculated by a combination of the linear and log-linear trapezoidal methods. The area under the mean plasma concentration–time curve from zero up to infinity (AUC) was determined as the sum of the AUC0–tlast and of the extrapolated part (i.e., the ratio of the concentration predicted at the time interval of tlast and the terminal rate constant, λz). The λz was estimated by linear regression of the log transformed concentrations in the terminal part of the curve.
Population pharmacokinetic modeling was performed using non-linear, mixed effect modeling as implemented in Monolix, version 4 (http://wfn.software.monolix.org). Pharmacokinetic parameters were estimated by computing the maximum likelihood estimator of the parameters without any approximation of the model (no linearization). This was performed using the Stochastic Approximation Expectation Maximization (SAEM) algorithm combined with a Markov chain Monte Carlo procedure. The between-animal variability in model parameters were ascribed to an exponential model and a proportional model was used to describe the residual variability. The goodness-of-fit was assessed by using several diagnostic plots (observed and predicted concentrations vs. time; observed concentrations vs. population predictions; weighted residuals vs. time; and weighted residuals vs. predictions). Individual parameter values were obtained as empirical Bayes estimates. […]

Series [11] can be described thus: Long-term stability in plasma samples at -80°C. The following applies: for Long-term stability: plasma, -80°C, 7 days. The format is in vitro ADME, rat. The procedure:
as §6
Linearity was examined over the concentration ranges described in Supplementary Table 1 using a weighted (1/x 2) linear regression in GraphPad Prism 6 (v. 6.04, GraphPad Software […]
as §7

[12] abbreviates: high concentration level (2.105-3.115 µmol·L-1).
Where [13] appears, read: low concentration level (0.035-0.156 µmol·L-1).
[14] abbreviates: medium concentration level (0.702-1.558 µmol·L-1).

SMILES strings stand for the structures.

`O=C(c1ccccn1)c1ccccn1` [DpK, di(2-pyridyl)ketone]: the “inhibition of 59Fe uptake from 59Fe-transferrin (in words)” value with MCF-7 cells [1] is given as “did not have any significant (p>0.05) effect”. In addition, in series [2], the “intracellular Fe chelation efficacy (in words)” value is listed as “lower ability to bind intracellular Fe than their parent ligands”. The “59Fe mobilization (in words)” value with MCF-7 cells [3] was “no greater than the control”. The 50% inhibitory concentration (IC50) in series [4], in series [5], in series [6], in [7] and in series [8] was > 1000 µM throughout.
For `CNC(=S)NN=C(c1ccccn1)c1ccccn1` [Dp4mT, di(2-pyridyl)ketone 4-methyl-3-thiosemicarbazone], the “decomposition on storage (in words)” value in series [9] (24 h storage in the autosampler at 10°C) and in series [11] (up to 7 days stored at −80°C) was “No significant decomposition” in each case. The Post-preparative stability is 95.44% in [9] (setting [12]), 100.24% in series [9] (setting [13]) and 111.72% in series [9] (setting [14]). In series [10] (male, Wistar, rat, plasma, iv, 2 mg/kg, rats, i.v. 2 mg·kg^−1, non-compartmental analysis of geometric mean plasma curves, Dp4mT = metabolite after Dp44mT dosing, read-out: Cmax), the maximum concentration (Cmax) (usually the highest concentration seen after dosing) amounted to 496 nM. Also, in series [10] (male, Wistar, rat, plasma, iv, 2 mg/kg, rats, i.v. 2 mg·kg^−1, non-compartmental analysis, Dp4mT = metabolite after Dp44mT dosing, read-out: Tmax (converted)), the time to peak (Tmax) – broadly, the time from dosing to the highest level – is 0.167 h. Besides, in [10] (male, Wistar, rat, plasma, iv, 2 mg/kg, rats, i.v. 2 mg·kg^−1, non-compartmental analysis, read-out: AUC (zero to infinity)), the AUC(0-inf) came to 0.748 µM·h. Besides, the half-life in series [10] (male, Wistar, rat, plasma, iv, 2 mg/kg, rats, i.v. 2 mg·kg^−1, non-compartmental analysis, read-out: t1/2 (elimination half-life) (converted)) is 2 h. In addition, the AUC(0-t) in series [10] (male, Wistar, rat, plasma, iv, 2 mg/kg, read-out: AUC0-tlast) is 0.671 µM·h. In series [10] (rats, i.v. 2 mg·kg^−1, non-compartmental analysis), the “lamdaz (terminal rate constant of elimination)” value stood at 0.346 h⁻¹. For the same compound, the figures for the Long-term stability in series [11] (setting [12]), in [11] (setting [13]) and in series [11] (setting [14]) were 90.82%, 94.78% and 90.83%, respectively.
Consider `CN(C(=O)NN=C(c1ccccn1)c1ccccn1)C1CCCCC1` [DpC-S, di(2-pyridyl)ketone 4-cyclohexyl-4-methylsemicarbazone], for which the “inhibition of 59Fe uptake from 59Fe-transferrin (in words)” value with MCF-7 cells [1] was “marked and similar to DpC”. Besides, the “intracellular Fe chelation efficacy (in words)” value in [2] is listed as “lower ability to bind intracellular Fe than their parent ligands”. Also, the “59Fe mobilization (in words)” value in the series on MCF-7 cells [3] is given as “comparable to DpC”. In addition, the IC50 (as a rule, the concentration at which inhibition is half-maximal) in [4] was determined as 3 ± 0.81 µM; in [5], 3.03 ± 0.91 µM; in series [6], 12.8 ± 2.87 µM; in series [7], 2.57 ± 0.33 µM; in series [8], 5.59 ± 0.82 µM.
In the case of `CN(C)C(=O)NN=C(c1ccccn1)c1ccccn1` [Dp44mS, di(2-pyridyl)ketone 4,4-dimethylsemicarbazone], the “internalized 59Fe uptake from 59Fe-transferrin, % of the control” value with MCF-7 cells [1] worked out at 64%. The “intracellular Fe chelation efficacy (in words)” value in series [2] is reported as “lower ability to bind intracellular Fe than their parent ligands”. The “59Fe mobilization (in words)” value in the series with MCF-7 cells [3] is reported as “approximately half as effective as Dp44mT”. For the same compound, the IC50 in series [4] turned out to be 29.4 ± 8.63 µM; in [5] it was 9.31 ± 1.58 µM; in series [6] it was 139 ± 28.9 µM; in [7] it was 27.3 ± 3.56 µM; in [8] it was 367 ± 63.4 µM.
